Measured values: US9376420B2 (YUHAN CORPORATION, priority 2012, dated 2016)
pEC50: −log10 of the molar value.

Biological target: T1, human LXRβ (Homo sapiens, UniProt P55055)
T1 construct: expressed in transfected cells; host or cells: HEK293 cells (ATCC CRL-1573), transient transfection with pFA-hLXRβ/GAL4 and pUAS
T1 sequence (P55055 222-460 limits assumed): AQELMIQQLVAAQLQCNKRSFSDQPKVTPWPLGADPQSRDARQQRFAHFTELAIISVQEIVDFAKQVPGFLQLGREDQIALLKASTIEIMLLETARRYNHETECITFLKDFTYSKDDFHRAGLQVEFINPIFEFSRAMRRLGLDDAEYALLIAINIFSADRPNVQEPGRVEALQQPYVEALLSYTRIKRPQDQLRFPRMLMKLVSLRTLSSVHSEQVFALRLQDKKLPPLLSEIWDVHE
Experiment: Assay for Transcriptional Activity of LXRβ (GAL4-hLXRβ LBD luciferase reporter, transient transfection)
Format: cell-based
Details: HEK293 cells transfected with pFA-hLXRβ/GAL4 and pUAS, 24 hours; for Emax: fold value in comparison with the control (DMSO-treated group); for pEC50: increase of transcriptional activity of LXRβ, average of three independent tests
Procedure, shortened: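 EC50 values, averaged over three independent runs, come from a four-parameter fit of 9-point half-log curves spanning 0.01–50 μM. Luciferase output was read in lysed HEK293 cells 24 h after dosing at 37 °C, following transient transfection with a GAL4-human LXRβ LBD fusion plus GAL4-responsive reporter.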

Row | Emax | pEC50 | Compound
1 | 90 fold | 6.14 | CS(=O)(=O)N1CC=C(c2ccc(C3CC(C(O)(C(F)(F)F)C(F)(F)F)=NN3c3ccccc3Cl)cn2)CC1 (centres unmarked) [Example 358, 1-(2-chloro-phenyl)-5-[6-(1-methanesulfonyl-1,2,3,6-tetrahydropyridin-4-yl)-pyridin-3-yl]-3-[di-(trifluoromethyl)-hydroxy-methyl]-4,5-dihydro-1H-pyrazole]
2 | 59 fold | 6.35 | N#Cc1ccc(-c2ccc(C3CC(C(O)(C(F)(F)F)C(F)(F)F)=NN3c3ccccc3Cl)cc2)cn1 (centres unmarked) [Example 267, 1-(2-chloro-phenyl)-5-[4-(6-cyano-pyridin-3-yl)-phenyl]-3-[di-(trifluoromethyl)-hydroxy-methyl]-4,5-dihydro-1H-pyrazole]
3 | 57 fold | 5.73 | OC(C1=NN(c2ccccc2Cl)C(c2ccc(-c3ccoc3)cc2)C1)(C(F)(F)F)C(F)(F)F (centres unmarked) [Example 257, 1-(2-chloro-phenyl)-5-(4-furan-3-yl-phenyl)-3-[di-(trifluoromethyl)-hydroxy-methyl]-4,5-dihydro-1H-pyrazole]
4 | 72 fold | 5.83 | CCOc1cccc(-c2ccc(C3CC(C(O)(C(F)(F)F)C(F)(F)F)=NN3c3ccccc3F)cc2)c1 (centres unmarked) [Example 336, 5-(3′-ethoxy-biphenyl-4-yl)-1-(2-fluoro-phenyl)-3-[di-(trifluoromethyl)-hydroxy-methyl]-4,5-dihydro-1H-pyrazole]
5 | 56 fold | 6.20 | CN(C)S(=O)(=O)c1cccc(-c2ccc(C3CC(C(O)(C(F)(F)F)C(F)(F)F)=NN3c3ccccc3Cl)cc2)c1 (centres unmarked) [Example 284, 1-(2-chloro-phenyl)-5-(3′-dimethylsulfamoyl-biphenyl-4-yl)-3-[di-(trifluoromethyl)-hydroxy-methyl]-4,5-dihydro-1H-pyrazole]
6 | 26 fold | 6.76 | CS(=O)(=O)c1ccc(-c2ccc(C3CC(C(O)(C(F)(F)F)C(F)(F)F)=NN3c3ccc(F)cc3F)cc2)nc1 (centres unmarked) [Example 391, 1-(2,4-difluoro-phenyl)-5-[4-(5-methanesulfonyl-pyridin-2-yl)-phenyl]-3-[di-(trifluoromethyl)-hydroxy-methyl]-4,5-dihydro-1H-pyrazole]
7 | 44 fold | 6.11 | CSc1ccc(-c2ccc(C3CC(C(O)(C(F)(F)F)C(F)(F)F)=NN3c3ccc(F)cc3F)cc2)cn1 (centres unmarked) [Example 382, 1-(2,4-difluoro-phenyl)-5-[4-(6-methanesulfanyl-pyridin-3-yl)-phenyl]-3-[di-(trifluoromethyl)-hydroxy-methyl]-4,5-dihydro-1H-pyrazole]
8 | 45 fold | 5.94 | COC(=O)c1cncc(-c2ccc(C3CC(C(O)(C(F)(F)F)C(F)(F)F)=NN3c3ccccc3Cl)cc2)c1 (centres unmarked) [Example 273, 1-(2-chloro-phenyl)-5-[4-(5-methoxycarbonyl-pyridin-3-yl)-phenyl]-3-[di-(trifluoromethyl)-hydroxy-methyl]-4,5-dihydro-1H-pyrazole]
9 | 112 fold | 6.45 | CC(=O)c1ccc(-c2ccc(C3CC(C(O)(C(F)(F)F)C(F)(F)F)=NN3c3ccccc3Cl)c(F)c2)cc1 (centres unmarked) [Example 341, 1-(2-chloro-phenyl)-5-(4′-acetyl-3-fluoro-biphenyl-4-yl)-3-[di-(trifluoromethyl)-hydroxy-methyl]-4,5-dihydro-1H-pyrazole]
10 | 17 fold | 5.78 | CC(C)(O)C(=O)N1CCN(c2ccc(C3CC(C(O)(C(F)(F)F)C(F)(F)F)=NN3c3ccccc3Cl)cc2)CC1 (centres unmarked) [Example 320, 1-(2-chloro-phenyl)-5-{4-[4-(2-hydroxy-2-methyl-propionyl)-piperazin-1-yl]-phenyl}-3-(di-(trifluoromethyl)-hydroxy-methyl]-4,5-dihydro-1H-pyrazole]
11 | 55 fold | 5.99 | COc1ncc(-c2ccc(C3CC(C(O)(C(F)(F)F)C(F)(F)F)=NN3c3ccccc3Cl)cc2)cc1C=O (centres unmarked) [Example 274, 1-(2-chloro-phenyl)-5-[4-(5-formyl-6-methoxy-pyridin-3-yl)-phenyl]-3-[di-(trifluoromethyl)-hydroxy-methyl]-4,5-dihydro-1H-pyrazole]
12 | 59 fold | 5.83 | O=S(=O)(C1CC1)N1CCN(c2ccc(C3CC(C(O)(C(F)(F)F)C(F)(F)F)=NN3c3ccccc3Cl)cc2)CC1 (centres unmarked) [Example 315, 1-(2-chloro-phenyl)-5-[4-(4-cyclopropanesulfonyl-piperazin-1-yl)-phenyl]-3-[di-(trifluoromethyl)-hydroxy-methyl]-4,5-dihydro-1H-pyrazole]
13 | 47 fold | 6.28 | OC(C1=NN(c2ccccc2Cl)C(c2ccc(-c3cc(F)c(-n4cncn4)cc3F)cc2)C1)(C(F)(F)F)C(F)(F)F (centres unmarked) [Example 287, 1-(2-chloro-phenyl)-5-[2′,5′-difluoro-4′-(1H-1,2,4-triazol-1-yl)-biphenyl-4-yl]-3-[di-(trifluoromethyl)-hydroxy-methyl]-4,5-dihydro-1H-pyrazole]

Continued, molecule first:

Row | Compound | Emax | pEC50
14 | O=C(c1cccs1)N1CC=C(c2cccc(C3CC(C(O)(C(F)(F)F)C(F)(F)F)=NN3c3ccccc3Cl)c2)CC1 (centres unmarked) [Example 234, 1-(2-chloro-phenyl)-5-{3-[1-(thiophene-2-carbonyl)-1,2,3,6-tetrahydropyridin-4-yl]-phenyl}-3-[di-(trifluoromethyl)-hydroxy-methyl]-4,5-dihydro-1H-pyrazole] | 49 fold | 7.89
15 | CS(=O)(=O)c1cccc(-c2ccc(C3CC(C(F)(F)C(F)(F)F)=NN3c3ccc(F)cc3F)cc2)c1 (centres unmarked) [Example 18, 1-(2,4-difluoro-phenyl)-5-(3′-methanesulfonyl-biphenyl-4-yl)-3-pentafluoroethyl-4,5-dihydro-1H-pyrazole] | 103 fold | 6.16
16 | CNCCCS(=O)(=O)c1cccc(-c2cccc(C3CC(C(F)(F)C(F)(F)F)=NN3c3ccc(F)cc3F)c2)c1 (centres unmarked) [Example 89, 1-(2,4-difluoro-phenyl)-5-{3′-[3-(N-methyl-amino)-propane-1-sulfonyl]-biphenyl-3-yl}-3-pentafluoroethyl-4,5-dihydro-1H-pyrazole] | 106 fold | 6.42
17 | CS(=O)(=O)c1ccc(-c2cncc(C3CC(C(F)(F)C(F)(F)F)=NN3c3ccc(F)cc3F)c2)cc1 (centres unmarked) [Example 162, 1-(2,4-difluoro-phenyl)-5-[3-(4-methanesulfonyl-phenyl)-pyridin-5-yl]-3-pentafluoroethyl-4,5-dihydro-1H-pyrazole] | 59 fold | 5.53
18 | COc1ncccc1-c1cccc(C2CC(C(F)(F)C(F)(F)F)=NN2c2ccc(F)cc2F)c1 (centres unmarked) [Example 75, 1-(2,4-difluoro-phenyl)-5-(3-(2-methoxy-pyridin-3-yl)-phenyl)-3-pentafluoroethyl-4,5-dihydro-1H-pyrazole] | 63 fold | 5.95
19 | Fc1ccc(N2N=C(C(F)(F)C(F)(F)F)CC2c2cccc(-c3ccc(C(F)(F)F)nc3)c2)c(F)c1 (centres unmarked) [Example 72, 1-(2,4-difluoro-phenyl)-3-pentafluoroethyl-5-(3-(2-trifluoromethyl-pyridin-5-yl)-phenyl)-4,5-dihydro-1H-pyrazole] | 9 fold | 4.82
20 | CS(=O)(=O)N1CCN(c2ccc(F)c(C3CC(C(F)(F)C(F)(F)F)=NN3c3ccc(F)cc3F)c2)CC1 (centres unmarked) [Example 145, 1-(2,4-difluoro)-5-[2-fluoro-5-(4-methanesulfonyl-piperazin-1-yl)-phenyl]-3-pentafluoroethyl-4,5-dihydro-1H-pyrazole] | 107 fold | 6.05
21 | CS(=O)(=O)N1CCN(c2ccnc(C3CC(C(F)(F)C(F)(F)F)=NN3c3ccc(F)cc3F)c2)CC1 (centres unmarked) [Example 183, 1-(2,4-difluoro-phenyl)-5-[4-(4-methanesulfonyl-piperazin-1-yl)-pyridin-2-yl]-3-pentafluoroethyl-4,5-dihydro-1H-pyrazole] | 79 fold | 5.48
22 | OC(C1=NN(c2ccc(F)cc2F)C(c2ccc(-c3c(F)cc(-n4cnnn4)cc3F)cc2)C1)(C(F)(F)F)C(F)(F)F (centres unmarked) [Example 393, 1-(2,4-difluoro-phenyl)-5-{[2′,6′-difluoro-4′-(tetrazol-1-yl)-biphenyl]-4-yl}-3-[di-(trifluoromethyl)-hydroxy-methyl]-4,5-dihydro-1H-pyrazole] | 8 fold | 6.10
23 | CS(=O)(=O)c1ccc(-c2cccc(C3CC(C(F)(F)C(F)(F)F)=NN3c3ccccc3Cl)c2)cc1 (centres unmarked) [Example 106, 1-(2-chloro-phenyl)-5-(4′-methylsulfonyl-biphenyl-3-yl)-3-pentafluoroethyl-4,5-dihydro-1H-pyrazole] | 85 fold | 5.94
24 | CS(=O)(=O)c1ccc(-c2cccc(C3CC(C(F)(F)C(F)(F)F)=NN3c3ccc(F)cc3F)c2)cc1 (centres unmarked) [Example 51, 1-(2,4-difluoro-phenyl)-5-(4′-methanesulfonyl-biphenyl-3-yl)-3-pentafluoroethyl-4,5-dihydro-1H-pyrazole] | 61 fold | 5.61
25 | CS(=O)(=O)c1ccc(-c2ccnc(C3CC(C(F)(F)C(F)(F)F)=NN3c3ccc(F)cc3F)c2)cn1 (centres unmarked) [Example 178, 1-(2,4-difluoro-phenyl)-5-[4-(6-methanesulfonyl-pyridin-3-yl)-pyridin-2-yl]-3-pentafluoroethyl-4,5-dihydro-1H-pyrazole] | 82 fold | 6.27
